This is an account of results in patent US5232922A, “Imidazole compounds, processes for their preparation, pharmaceuticals based on these compounds and some intermediates” (priority 1990, dated 1993).

Where a name gives a salt, the structure may show the parent alone. Read-outs that look alike come from different tables or passages of the source.

Data set [1] relates to skeletal muscle of the rat (chronic ischemic). The experiment in a line: Effect on the contractility of the skeletal muscle after chronic ischemia (tiring index). In kind it is in vivo, rat (male Wistar). The note with it: for TI of ischemic treated muscle: tiring index = maximum contractility / residual force after 5 min stimulation; for change in vivo at 6 mg/kg: Rattus norvegicus, po, 168 h, read-out: Percentage change (TI of ischemic treated muscle vs TI of normal non-treated muscle). The text has this: 1) Effect on the Contractility of the Skeletal Muscle After Chronic Ischemia
In recent years, a marked change has taken place in ideas about the pathophysiology of chronic peripheral arterial occlusive disease as scientific interest has to an increasing extent shifted from the macrocirculation to the microcirculation. Disturbances in the microcirculation therefore manifest themselves in an undersupply of substrates with tissue ischemia resulting therefrom which, in turn, leads to an impairment in the function of the extremity concerned. The logical consequence of this is that the target organ skeletal muscle comes more and more into the forefront. […] The clinical activity is in fact also consistently determined in humans with the aid of the painless walking distance on the moving walkway.
Male Wistar rats having a body weight of 380 to 410 g were used as experimental animals. Under hexobarbital anesthesia (®Evipan--sodium, 200 mg/kg BW (=body weight) i.p.), a unilateral ligature of the right femoral artery was applied to the animals in the groin. After sprinkling penicillin sulfonamide powder for antibiotic wound care, the small operation wound was closed and the animals were continuously observed until they were completely awake. One week later, the administration of substance began by oral administration using a stomach tube (6 mg/kg BW, carboxymethylcellulose-sodium suspension) and was continued for 7 days (single administration per day, about 7h30 to 8h30). The contractility was measured 24 h after the last administration of substance in order to exclude acute effects, to be precise by the following experimental protocol:
Superfusion with physiological saline solution (37° C.) was used to avoid drying out and cooling. The mean arterial blood pressure was recorded continuously via Statham (=blood pressure measuring device) by means of a cannulated caroted artery to control the physiological status of the animals during the experiment. All animals breathed spontaneously by means of an inserted tracheal tube.
After these preparations, the muscle was made to contract (Stimulator I, Hugo Sachs, Federal Republic of Germany) by direct electrical stimulation (2.5 mA, 2 Hz). The absolute contractility in grams at various times of stimulation was used as the measured parameter. […] If the maximum contractility at the start of stimulation is now divided by the residual force remaining after 5 minutes' tiring stimulation, a "tiring index TI" for the muscle concerned can be calculated; the ability to tire here is larger the larger TI is numerically.
4 to 6 individual experiments were carried out for each test preparation.

Data set [2] concerns laser-induced thrombosis in mesenterial arterioles. Description: Inhibition of laser-induced thrombosis in mesenterial arterioles of the rat. It counts as in vivo, rat (female Sprague-Dawley). The note with it: for inhibition in vivo at 20 mg/kg / inhibition in vivo at 10 mg/kg: Rattus norvegicus, po, read-out: Percentage change vs control (inhibition of laser-induced thrombosis); for inhibition in vivo at 10 mg/kg: 10 mg/kg p.o.

The nature of data set [3]: Acute toxicity (LD50 range). The note with it: mouse, in vivo, iv, single administration, NMRI mice, 7 days. The procedure: The determination of the LD50 ranges was carried out in standard fashion by means of the mortality occurring in the course of 7 days in NMRI mice after single intravenous (i.v.) or intraperitoneal (i.p.) administration (NMRI=NIH Medical Research Institute).

Where [4] appears, read: 6 mg/kg p.o. over 7 days, n = 4-6, smaller value = more effective.
The mark [5] stands for this setting: 6 mg/kg p.o. over 7 days, n = 4-6.

“1-[3-(1-methyl-5-imidazolesulfonyl)-aminopropyl]-2-pyrrolidinone [Example 43]”: the “Percentage change (TI of ischemic treated muscle vs TI of normal non-treated muscle)” value in data set [1] (setting [4]) is given as “+29.4%”. The “TI of ischemic treated muscle” value in data set [1] (setting [5]) worked out at 2.29. In addition, the “Percentage change vs control (inhibition of laser-induced thrombosis)” value in data set [2] (20 mg/kg p.o.) came out at 15%.
With `Cn1cnc(S(=O)(=O)O)c1` [Example 3, 1-Methyl-4-imidazolesulfonic acid], the “TI of ischemic treated muscle” value in data set [1] (setting [5]) was 2.26. Besides, the change in vivo at 6 mg/kg in data set [1] (setting [4]) is 7.1%. In addition, the inhibition in vivo at 20 mg/kg in data set [2] (20 mg/kg p.o.) was 23%.
`Cn1cnc(S(=O)(=O)NCCN2CCOCC2)c1` [Example 9, N-(2-morpholinoethyl)-1-methyl-4-imidazolesulfonamide]: the “TI of ischemic treated muscle” value in data set [1] (setting [5]) came out at 2.47. In data set [1] (setting [4]), the change in vivo at 6 mg/kg is 10.3%.
Consider `Cl.Cn1cnc(S(=O)(=O)NCCCCCN2CCOCC2)c1` [Example 11, N-(5-morpholinopentyl)-1-methyl-4-imidazolesulfonamide hydrochloride], for which the “TI of ischemic treated muscle” value in data set [1] (setting [5]) is on record as 2.52. In addition, the change in vivo at 6 mg/kg in data set [1] (setting [4]) stood at 22.9%.
In data set [3], `CC(CNS(=O)(=O)c1cn(C)cn1)CN1CCOCC1.Cl` (stereo not drawn) [Example 12, N-(3-morpholino-2-methyl-1-propyl)-1-methyl-4-imidazolesulfonamide hydrochloride] registered an LD50 at 168 h of more than 100 mg/kg. Also, in data set [2] (20 mg/kg p.o.), the inhibition in vivo at 20 mg/kg was 24%.
On to `Cl.Cn1cnc(S(=O)(=O)NCCCN2CCSCC2)c1` [Example 13, N-(3-thiomorpholinopropyl)-1-methyl-4-imidazolesulfonamide hydrochloride], for which the “TI of ischemic treated muscle” value in data set [1] (setting [5]) is 2.95. Moreover, the change in vivo at 6 mg/kg in data set [1] (setting [4]) is -10.1%. Also, the inhibition in vivo at 20 mg/kg in data set [2] (20 mg/kg p.o.) was found to be 14%.
For `CCCCN(CCCN1CCOCC1)S(=O)(=O)c1cn(C)cn1.Cl` [Example 15, N-butyl-N-(3-morpholino-1-propyl)-1-methyl-4-imidazolesulfonamide hydrochloride], in data set [1] (setting [5]), the “TI of ischemic treated muscle” value came to 1.96. In data set [1] (setting [4]), the change in vivo at 6 mg/kg is 10.9%.
Taken in the same sequence, the figures for `CC1CCCCN1CCCNS(=O)(=O)c1cn(C)cn1.Cl` (stereo not drawn) [Example 17, N-[3-(2-methylpiperidino)-propyl]-1-methyl-4-imidazolesulfonamide hydrochloride] were 2.04 and -14.3%.
In the case of `Cn1cnc(S(=O)(=O)NCCCCN2CCC3(CC2)OCCO3)c1` [Example 19, hydrochloride], in data set [1] (setting [5]), the “TI of ischemic treated muscle” value is recorded as 2.20. For the same compound, in data set [1], the change in vivo at 6 mg/kg was found to be 11.1%.
On to `Cl.Cn1cnc(S(=O)(=O)NCCN2CCCC2)c1` [Example 20, N-(2-pyrrolidinoethyl)-1-methyl-4-imidazolesulfonamide hydrochloride], for which the “TI of ischemic treated muscle” value in data set [1] (setting [5]) stood at 2.56. In addition, the change in vivo at 6 mg/kg in data set [1] (setting [4]) came to 23.1%.
On to `CN1CCCC1CCNS(=O)(=O)c1cn(C)cn1.Cl` (stereo not drawn) [Example 21, N-[2-(1-methyl-2-pyrrolidinyl)-ethyl]-1-methyl-4-imidazolesulfonamide hydrochloride], for which the “TI of ischemic treated muscle” value in data set [1] (setting [5]) is recorded as 2.34. For the same compound, in data set [1] (setting [4]), the change in vivo at 6 mg/kg was 19.4%. Further, the inhibition in vivo at 20 mg/kg in data set [2] (20 mg/kg p.o.) turned out to be 24%.
Regarding `COCCN(CCCNS(=O)(=O)c1cn(C)cn1)CCOC` [Example 23], the “TI of ischemic treated muscle” value in data set [1] (setting [5]) was 2.18. In addition, the change in vivo at 6 mg/kg in data set [1] (setting [4]) is 23.1%.
`Cl.Cn1cnc(S(=O)(=O)NCCCN2CCN(Cc3ccccc3)CC2)c1` [Example 26, N-[3-(4-benzyl-1-piperazinyl)-propyl]-1-methyl-4-imidazolesulfonamide hydrochloride]: the “TI of ischemic treated muscle” value in data set [1] (setting [5]) is listed as 2.49. Further, the change in vivo at 6 mg/kg in data set [1] (setting [4]) was found to be 25.7%. In data set [2], the inhibition in vivo at 10 mg/kg was determined as 24%.
In the case of `CN(CCCNS(=O)(=O)c1cn(C)cn1)Cc1ccccc1` [Example 28, N-[3-(N-Benzyl-N-methylamino)-1-propyl]-1-methyl-4-imidazolesulfonamide hydrogenfumarate], the “TI of ischemic treated muscle” value in data set [1] (setting [5]) was 2.27. In addition, the change in vivo at 6 mg/kg in data set [1] (setting [4]) was found to be 14.6%.
Take `Cc1nc(S(=O)(=O)NCCCN2CCOCC2)cn1C.Cl` [Example 33, N-(3-Morpholinopropyl)-1,2-dimethyl-4-imidazolesulfonamide hydrochloride]: in data set [1] (setting [5]), the “TI of ischemic treated muscle” value turned out to be 2.30. Besides, in data set [1] (setting [4]), the change in vivo at 6 mg/kg was 12.2%. In addition, in data set [2], the inhibition in vivo at 10 mg/kg was 18%.
Consider `CCn1cnc(S(=O)(=O)NCCCN2CCOCC2)c1` [Example 37, N-(3-Morpholinopropyl)-1-ethyl-4-imidazolesulfonamide hydrogenfumarate], for which the “TI of ischemic treated muscle” value in data set [1] (setting [5]) came out at 2.09. The change in vivo at 6 mg/kg in data set [1] (setting [4]) was -7.9%.
In the case of `Cn1cnc(S(=O)(=O)NC(CN2CCOCC2)CN2CCOCC2)c1` [Example 38, N-(1,3-Dimorpholino-2-propyl)-1-methyl-4-imidazolesulfonamide], in data set [1] (setting [5]), the “TI of ischemic treated muscle” value is 2.18. The change in vivo at 6 mg/kg in data set [1] (setting [4]) stood at 10.1%. Also, the inhibition in vivo at 10 mg/kg in data set [2] turned out to be 21%.
In the case of `Cn1cnc(S(=O)(=O)Oc2ccc(N3CCN(S(=O)(=O)c4ncn(C)c4Cl)CC3)cc2)c1Cl` [Example 41, 1-(1-Methyl-5-chloro-4-imidazolesulfonyl)4-[4-(1-methyl-5-chloro-4-imidazolesulfonyloxy)phenyl]piperazine], in data set [1] (setting [5]), the “TI of ischemic treated muscle” value came out at 2.18. The change in vivo at 6 mg/kg in data set [1] (setting [4]) came out at 18.5%.
Taken in the same sequence, the figures for `Cn1cnc(S(=O)(=O)N2CCSCC2)c1` [Example 42, 4-(1-Methyl-4-imidazolesulfonyl)tetrahydro-4H-1,4-thiazine] were 2.84 and 24.6%.
In the same order, the values of `Cn1cnc(S(=O)(=O)NCCc2ccc(O)cc2)c1` [Example 45, N-(4-hydroxyphenethyl)-1-methyl-4-imidazolesulfonamide] are 2.14 and 16.3%.
In the same order, the values of `Cn1cnc(S(=O)(=O)NCCCCCCNS(=O)(=O)c2ncn(C)c2Cl)c1Cl` [Example 47, 1,6-bis(5-chloro-1-methyl-4-imidazolesulfonamido)hexane] are 2.46 and 6%.
Take `Cn1cnc(S(=O)(=O)NCCc2ccc(OCC(=O)O)cc2)c1` [Example 51, 4-[2-(1-Methyl-4-imidazolesulfonyl)aminoethyl]phenoxyacetic acid]: the “TI of ischemic treated muscle” value in data set [1] (setting [5]) is 2.92. Moreover, in data set [1] (setting [4]), the change in vivo at 6 mg/kg came out at 23.7%.
With `Cn1cnc(S(=O)(=O)NCCc2ccc(OCC(=O)O)cc2)c1Cl` [Example 52, 4-[2-(5-Chloro-1-methyl-4-imidazolesulfonyl)aminoethyl]phenoxyacetic acid], the “TI of ischemic treated muscle” value in data set [1] (setting [5]) amounted to 2.16. In addition, the change in vivo at 6 mg/kg in data set [1] (setting [4]) was 17.4%.
In turn, `Cn1cnc(S(=O)(=O)NCCC[N+]2(C)CCOCC2)c1` [Example 56, 4-Methyl-4-[3-(1-methyl-4-imidazolesulfamoyl)-1-propyl]morpholinium iodide] had an LD50 at 168 h in data set [3] of more than 100 mg/kg. Further, in data set [2], the inhibition in vivo at 10 mg/kg was 24%.
For `Cn1cnc(S(=O)(=O)N2CCS(=O)(=O)CC2)c1` [Example 57, 4-(1-Methyl-4-imidazolesulfonyl)tetrahydro-4H-1,4-thiazine-1,1-dioxide], the inhibition in vivo at 10 mg/kg in data set [2] was determined as 19%.
For the compound `CCOC(=O)COc1ccc(N2CCN(S(=O)(=O)c3ncn(C)c3Cl)CC2)cc1` [Example 58, Ethyl 4-[4-(5-chloro-1-methyl-4-imidazolesulfonyl)piperazinyl]phenoxyacetate], in data set [1] (setting [5]), the “TI of ischemic treated muscle” value stood at 2.07. In addition, in data set [1] (setting [4]), the change in vivo at 6 mg/kg was -1.9%.
In the same order, the values of `CNCCCNS(=O)(=O)c1cn(C)cn1.Cl` [Example 62, N-(3-Methylamino-1-propyl)-1-methyl-4-imidazolesulfonamide hydrochloride] are 2.5 and 27.8%.

Usually LD50 stands for the dose expected to kill half of the subjects tested. Read a low LD50 as greater toxicity.
